Tests used:
[1] = system: patients with indolent mastocytosis with handicap bearing the D816V c-Kit mutation; experiment: Example 2 phase 2a study, safety; format: in vivo, human
[2] = system: patients with indolent mastocytosis with handicap bearing the D816V c-Kit mutation; experiment: Example 2 phase 2a study, efficacy; format: in vivo, human; design: mean reduction of FIS score / mean reduction of pruritus score / mean reduction in frequency of flushes / reduction of daily number of stools / reduction of daily number of micturition / AFIRMM score reduction: concentration or dose not given beside the values; conditions: week 12
From the text: Eligible patients were aged >18 years, had previously documented indolent systemic, smoldering systemic or cutaneous mastocytosis as per the WHO classification with associated disability as the result of mast cell released mediators. Patients had to have a positive D816V c-Kit mutation status, i.e. documented presence of D816V mutation in at least one infiltrated organ including bone marrow or skin. For patients with prior documented presence of D816V mutation in at least one infiltrated organ (bone marrow or skin), no test was performed at the screening visit; however, for those patients without such documentation it was necessary to perform c-Kit molecular analysis prior to randomization. Skin biopsy and optionally (unless patients had no cutaneous lesion) a bone marrow aspirate or biopsy, were performed at baseline to confirm the presence of D816V mutation and to count mast cells in the infiltrated organs. All skin biopsies, bone marrow aspirate or biopsies, performed for this study were sent to the AB Science central laboratory for sequencing and mast cell counting. Patients were classified as having a handicap if after appropriate symptomatic treatments they fulfilled at least one of the following a priori criteria: number of flushes/week ≥7; pruritus score ≥6; number of stools ≥4/day (i.e. diarrhea); micturition frequency ≥8/day (i.e. pollakiuria); Hamilton rating for depression ≥10; Fatigue Impact Scale (FIS) score ≥40; or EORTC quality-of-life questionnaire (QLQ-C30) score ≥60. Patients were excluded if they experienced inadequate organ function defined via blood test levels, or an Eastern Cooperative Oncology Group performance status >2. Other exclusion criteria included: life expectancy <6 months, severe or uncontrolled medical disease, and patients who were pregnant or nursing.
In accordance to the AFIRMM study (Hermine O, et al., 2008, PLoS ONE. 3:e2266), evaluation of treatment response was based upon the change of clinical symptoms associated with a patient's handicaps at week 12 relative to baseline. Efficacy was assessed on the symptoms of mastocytosis. Primary efficacy endpoints were treatment effect on the pruritus score, the number of flushes per week, the Hamilton score, and the Fatigue Impact scale.

[3] = patients with this handicap at baseline

## Cc1ccc(NC(=O)c2ccc(CN3CCN(C)CC3)cc2)cc1Nc1nc(-c2cccnc2)cs1 [masitinib, 4-(4-methylpiperazin-1-ylmethyl)-N-[4-methyl-3-(4-pyridin-3ylthiazol-2-ylamino)phenyl]benzamide]
[1]; 20 patients
  patients with at least one adverse event suspected to be related to masitinib: 95%
[1]; five patients
  patients who discontinued treatment because of a suspected adverse event: 24%
[1]; in vivo
  patients with suspected adverse event that led to dose reduction: Two
[1]; two patients
  patients with at least one serious adverse event suspected to be related to masitinib: 9%
[2]
  AFIRMM score reduction: 32.0%
[2]; PP population
  Hamilton score improvement: 27.0%
  mean reduction in frequency of flushes: 45.5%
  mean reduction of FIS score: 51.8%
  mean reduction of pruritus score: 46.0%
[2]; PP population (14 of 20 patients)
  overall response rate (improvement ≥50%): 70%
[2]; PP population (four patients)
  patients remaining stable: 20%
[2]; patients with diarrhea at baseline
  reduction of daily number of stools: 41.3%
[2]; patients with pollakiuria at baseline
  reduction of daily number of micturition: 30.3%
[2]; [3]
  Hamilton score improvement: 44.3%
  mean reduction in frequency of flushes: 55.3%
  mean reduction of FIS score: 45.6%
